Where only a bound is given, the exact number is not on record here.

The test deals with T1, Hepcidin (Homo sapiens) (UniProt P81172).
T1 sequence (whole entry): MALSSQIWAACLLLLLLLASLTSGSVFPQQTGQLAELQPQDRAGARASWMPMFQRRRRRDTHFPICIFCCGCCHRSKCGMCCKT
Briefly: Inhibition of human hepcidin-stimulated recombinant C-terminal Halo-tagged human FPN internalization in MDCK cells at 10 uM incubated for 15 to 20 mins by Halo-tagged TMR based fluorescence assay relative to control. It counts as cell-based.

As a reminder, the inhibition is the percentage by which the read-out fell short of the control. On to `Cc1nc(-c2ccccn2)nc(NCCNc2ccc(C(F)(F)F)cn2)c1Cl`, for which the inhibition is below 50%.
As for `C/C(=N\Nc1cc(N2CCOCC2)nc(C)n1)c1ccc(F)cc1`, the inhibition is below 50%.
In the case of `Oc1cccc(/C=N/Nc2cc(N3CCOCC3)nc(N3CCOCC3)n2)c1`, the inhibition was above 50%.
As for `Cc1nc(N/N=C/c2ccc(O)cc2O)cc(N2CCOCC2)n1`, the inhibition was above 50%.
Consider `Oc1ccccc1/C=N/Nc1cc(N2CCOCC2)nc(N2CCOCC2)n1`, for which the inhibition is above 50%.
As for `Cc1ccc2cc(Nc3nc(N4CCOCC4)nc(N4CCOCC4)n3)ccc2n1`, the inhibition is below 50%.
As to `c1ccc(N(c2ccccc2)c2nc(N3CCOCC3)nc(-n3ccnc3)n2)cc1`, the inhibition is above 50%.
Regarding `Nc1nc(-c2ccccn2)nc(N)c1Cc1ccccc1F`, the inhibition was below 50%.
The value for `COc1ccc(O)c(/C=N/Nc2nc(N3CCOCC3)nc(N3CCOCC3)n2)c1` was above 50%.
For the molecule `COc1cnc(-c2ccccn2)nc1NC(C)C`, the inhibition is above 50%.
Consider `Cc1nc(-c2ccccn2)nc(NCCNc2cc(C(F)(F)F)ccn2)c1Cl`, for which the inhibition was below 50%.
The value for `CN(c1ccccc1)c1nc(N2CCOCC2)nc(-n2ccnc2)n1` was below 50%.
